The text below walks through data of publication PMC7059629 (Letters in drug design & discovery, 2019).

Holding throughout (assay type): cell-based
One experiment has as its target rat mGlu2/4 heterodimer (Rattus norvegicus, UniProt P31421+P31423). In words: mGlu2/4 heterodimer PAM thallium flux assay. The conditions noted are these: for mGlu2/4 % Glu Max: ±SEM.
For the next experiment, the target named is rat mGlu2 (Rattus norvegicus, UniProt P31421). Put plainly: mGlu2 homodimer thallium flux assay. As to conditions: rat mGlu2-HEK293 cells, EC20 glutamate.
In another experiment the target is homodimeric mGlu4 (Homo sapiens, UniProt Q14833). Put plainly: mGlu4 Gqi5 calcium assay.
Where [1] appears, read: rat mGlu2/4-HEK293 cells, thallium flux, EC20 glutamate.

For `Cc1nc(-c2ccc(OCC(C)C)c(C#N)c2)sc1C(=O)NC1CCOCC1` [11a, 2-(3-cyano-4-iosbutoxyphenyl)-4-methyl-N-(tetrahydro-2H-pyran-4-yl)thiazole-5-carboxamide], on rat mGlu2/4 heterodimer (setting [1]), the “mGlu2/4 pEC50 (±SEM)” value was 5.28±0.03 and the “mGlu2/4 % Glu Max” value was 35±2 % Glu Max. At rat mGlu2, the “mGlu2 pEC50 (±SEM)” value is 5.32±0.02. The “mGlu2 % Glu Max” value on rat mGlu2 (±SEM) is recorded as 73±30 % Glu Max.

Regarding `Cc1nc(-c2ccc(OCC(C)C)c(C#N)c2)sc1C(=O)O` [compound 9, febuxostat], the concentration giving a half-maximal response (EC50) on rat mGlu2/4 heterodimer was 3.39 µM; at homodimeric mGlu4, > 30 µM. On rat mGlu2/4 heterodimer (setting [1]), the “mGlu2/4 % Glu Max” value was found to be 52.4±3.7 % Glu Max.

With `NC(=O)[C@@H]1CCCC[C@@H]1C(=O)Nc1ccc(Cl)c(Cl)c1` [compound 5, Lu AF21934], at rat mGlu2/4 heterodimer (setting [1]), the “mGlu2/4 % Glu Max” value amounted to 89 % Glu Max.
